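96-well plates; 48 h exposure; 5 concentrations. Endpoints by linear interpolation between flanking doses. Not reached: highest tested concentration assigned. GI50 is the concentration that inhibits growth by half.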 Active and inactive are the calls of the source. Rule as the data show it: active = GI50 up to about 1.1 µM and inactive = higher.
Columns and labels:
Test in all cases: NCI tumour cell line growth inhibition, 48 h
NCI/ADR-RES = system: NCI/ADR-RES
786-0 = system: 786-0
PC-3 = system: PC-3
ACHN = system: ACHN
M14 = system: M14
HOP-62 = system: HOP-62
DU-145 = system: DU-145
HOP-92 = system: HOP-92
CCRF-CEM = system: CCRF-CEM
MDA-MB-231 = system: MDA-MB-231
HT-29 = system: HT-29
BT-549 = system: BT-549
UACC-257 = system: UACC-257
OVCAR-5 = system: OVCAR-5
SK-MEL-2 = system: SK-MEL-2
NCI-H522 = system: NCI-H522
Hs-578T = system: Hs-578T
HCT-15 = system: HCT-15
RXF 393 = system: RXF 393
SW-620 = system: SW-620
U-251 = system: U-251
MOLT-4 = system: MOLT-4
UACC-62 = system: UACC-62
HCT-116 = system: HCT-116
TK-10 = system: TK-10
NCI-H226 = system: NCI-H226
KM12 = system: KM12
Malme-3M = system: Malme-3M
OVCAR-8 = system: OVCAR-8
A498 = system: A498
CAKI-1 = system: CAKI-1
NCI-H460 = system: NCI-H460
SN12C = system: SN12C
OVCAR-4 = system: OVCAR-4
SNB-19 = system: SNB-19
A549 = system: A549
EKVX = system: EKVX
SF-268 = system: SF-268
NCI-H23 = system: NCI-H23
SK-MEL-5 = system: SK-MEL-5
SNB-75 = system: SNB-75
HCC 2998 = system: HCC 2998
SK-MEL-28 = system: SK-MEL-28
UO-31 = system: UO-31
SF-295 = system: SF-295
IGROV-1 = system: IGROV-1
OVCAR-3 = system: OVCAR-3
MDA-MB-435 = system: MDA-MB-435
LOX IMVI = system: LOX IMVI
MDA-N = system: MDA-N
T47D = system: T47D

Compound: Cn1c(=O)c2c(nc(Cc3ccccc3)n2CC(=O)O)n(C)c1=O
- GI50 (NCI/ADR-RES): > 100 µM (inactive)
- GI50 (786-0): > 100 µM (inactive)
- GI50 (PC-3): > 100 µM (inactive)
- GI50 (ACHN): > 100 µM (inactive)
- GI50 (M14): > 100 µM (inactive)
- GI50 (HOP-62): > 100 µM (inactive)
- GI50 (DU-145): > 100 µM (inactive)
- GI50 (HOP-92): > 100 µM (inactive)
- GI50 (CCRF-CEM): > 100 µM (inactive)
- GI50 (MDA-MB-231): > 100 µM (inactive)
- GI50 (HT-29): > 100 µM (inactive)
- GI50 (BT-549): > 100 µM (inactive)
- GI50 (UACC-257): > 100 µM (inactive)
- GI50 (OVCAR-5): > 100 µM (inactive)
- GI50 (SK-MEL-2): > 100 µM (inactive)
- GI50 (NCI-H522): > 100 µM (inactive)
- GI50 (Hs-578T): > 100 µM (inactive)
- GI50 (HCT-15): > 100 µM
- GI50 (RXF 393): > 100 µM (inactive)
- GI50 (SW-620): > 100 µM (inactive)
- GI50 (U-251): > 100 µM (inactive)
- GI50 (MOLT-4): > 100 µM (inactive)
- GI50 (UACC-62): > 100 µM (inactive)
- GI50 (HCT-116): > 100 µM (inactive)
- GI50 (TK-10): > 100 µM (inactive)
- GI50 (NCI-H226): > 100 µM (inactive)
- GI50 (KM12): > 100 µM (inactive)
- GI50 (Malme-3M): > 100 µM (inactive)
- GI50 (OVCAR-8): > 100 µM (inactive)
- GI50 (A498): > 100 µM (inactive)
- GI50 (CAKI-1): > 100 µM (inactive)
- GI50 (NCI-H460): > 100 µM (inactive)
- GI50 (SN12C): > 100 µM (inactive)
- GI50 (OVCAR-4): > 100 µM (inactive)
- GI50 (SNB-19): > 100 µM (inactive)
- GI50 (A549): > 100 µM (inactive)
- GI50 (EKVX): > 100 µM (inactive)
- GI50 (SF-268): > 100 µM (inactive)
- GI50 (NCI-H23): > 100 µM (inactive)
- GI50 (SK-MEL-5): > 100 µM (inactive)
- GI50 (SNB-75): > 100 µM (inactive)
- GI50 (HCC 2998): > 100 µM (inactive)
- GI50 (SK-MEL-28): > 100 µM (inactive)
- GI50 (UO-31): > 100 µM (inactive)
- GI50 (SF-295): > 100 µM (inactive)
- GI50 (IGROV-1): > 100 µM (inactive)
- GI50 (OVCAR-3): > 100 µM (inactive)
- GI50 (MDA-MB-435): > 100 µM (inactive)
- GI50 (LOX IMVI): > 100 µM (inactive)
- GI50 (MDA-N): > 100 µM (inactive)
- GI50 (T47D): > 100 µM (inactive)

Reference: ChEMBL document CHEMBL1201862, “PubChem BioAssay data set” (2004)
